# Columns and labels:
# [1] = Dissolution of 2,2′-BPBPA-based BPCCs in PBS (2,2′-BPBPA released, 299 nm); type: physicochemical; details: 37° C., 150 rpm, mean n = 2
# Procedure: Dissolution experiment. In a 250 mL beaker was tranfer 100 mL of PBS or FaSSGF.
# Subsequently, this solution was allowed to reach 37° C. at 150 rpm. Then, individually ˜10.0 mg of powdered 2,2′-BPBPA-based BPCCs were added to the PBS or FaSSGF solution. Aliquots (1 mL) were taken out at different time points (0, 1, 3, 6, 24, 48, and 72 h) and diluted with PBS or FaSSGF in 5 mL volumetric flasks. An aliquot (1 mL) was taken out before adding the 2,2′-BPBPA-based BPCCs to record the first time point (0 h). The dissolution experiments were performed in duplicate for each 2,2′-BPBPA-based BPCC. The absorbance of the 2,2′-BPBPA released from these materials was assessed at 299 (PBS) and 318 (FaSSGF) nm.
# The release of 2,2′-BPBPA from the coordination complexes was assessed in physiological conditions (PBS, pH=7.40 and FaSSGF, pH=1.60). The absorbance of the supernatant was measured at the lambda of maximum absorption to determine the quantity of 2,2′-BPBPA release over time in PBS (λmax=299 nm) and FaSSGF (λmax=318 nm) at 37° C. It was observed that the 2,2′-BPBPA-based BPCCs release from 8 to 13% of 2,2′-BPBPA in neutral conditions (FIG. 160A). […] In acidic conditions, these 2,2′-BPBPA-based BPCCs release from 64 to 90% of 2,2′-BPBPA. The 2,2′-BPBPA-Ca (90%) and 2,2′-BPBPA-Zn (84%) presented the highest release of the ligand contrasted with 2,2′-BPBPA-Mg (64%) in FaSSGF (FIG. 160B). In particular, the 2,2′-BPBPA-Ca collapsed almost completely, indicating the possible ability of this material to degrade once in the acid environment of metastatic cancerous cells and be able to release potential cargo drugs.
# Dissolution experiment. In a 250 mL beaker was tranfer 100 mL of PBS. Subsequently, this solution was allowed to reach 37° C. at 150 rpm. Then, individually ˜10.0 mg of powdered 2,2′-BPBPA-based BPCCs were added to the PBS solution. Aliquots (1 mL) were taken out at different time points (0, 1, 3, 6, 24, 48, and 72 h) and diluted with PBS in 5 mL volumetric flasks. An aliquot (1 mL) was taken out before adding the 2,2′-BPBPA-based BPCCs to record the first time point (0 h). The absorbance of the 2,2′-BPBPA released from these materials was assessed at 299 nm. The dissolution experiments were performed in duplicate for each 2,2′-BPBPA-based BPCC. The percentage (%) of 2,2′-BPBPA released in PBS from these complexes is illustrated in Table 30.
# [2] = Hydroxyapatite (HA) affinity/binding assay of 2,2′-BPBPA and nano-Ca@2,2′-BPBPA; details: for Amount (%) bound to HA, Mean: HA 20 mg, duplicate
# Procedure: (§1) Affinity assays experiment. Synthetic HA was employed to explore the affinity of nano-Ca@2,2′-BPBPA to the bone microenvironment. HA (20 mg) was exposed to nano-Ca@2,2′-BPBPA (5 mL, 0.5 mg/mL). The 2,2′-BPBPA (0.5 mg/mL) and HA (20 mg) were used as control groups. All experimental and control groups were left under constant stirring (150 rpm) for 0-12 d. Finally, the supernatant was collected, centrifuged (5 min, 1500 rpm), and the absorbance was measured at λmax=299 nm of maximum absorption (1, 2, 3, 4, 7, 8, 9, 10, 11, 12 d) to determine the amount (%) of 2,2′-BPBPA bound to HA after each period. The experiment was performed in duplicate. Once the experiment was completed, HA, HA-2,2′-BPBPA, and HA-nano-Ca@2,2′-BPBPA were characterized by SEM-EDS and PXRD.
# The affinity of nano-Ca@22′-BPBPA to the bone was investigated using hydroxyapatite (HA). The HA is the main constituent of the bone microenvironment; this mineral represents an ideal target when treating bone-related diseases.^45 The binding assay of the nano-Ca@2,2′-BPBPA to HA was performed in PBS at 37° C., the HA as a received reagent was exposed to this nano-BPCCs for 0-12 d. The binding assay for 2,2′-BPBPA to HA was determined as a control experiment. The affinity of these materials to HA was assessed by measuring the absorbance of the supernatant at the lambda max (λmax=299 nm) to quantify the decrease in the 2,2′-BPBPA concentration over time. Binding curves (FIG. 163A) reveal that 2,2′-BPBPA and the nano-Ca@2,2′-BPBPA presented between 32 to 37% binding to HA after 2 d. The ligand reaches about 90% of binding to HA after 7 d while the nano-Ca@2,2′-BPBPA offers a 93% of binding to this mineral after 8 d.
# as §1, with “Binding assay with hydroxyapatite (HA).” for “Affinity assays experiment.”, “Experiment” for “The experiment”, “PXRD. Table 35 present the percentage (%) of 2,2′-BPBPA and nano-Ca@2,2′-BPBPA bound to HA in PBS. FIGS. 200-201 show the binding curves for 2,2′-BPBPA and nano-Ca@2,2′-BPBPA.” for “PXRD.”
# [3] = as above; details: 0.5 mg/mL, HA 20 mg, PBS, duplicate
smiles,measurement,setting,value
"O=P(O)(O)c1ccc(-c2ccc(P(=O)(O)O)cn2)nc1 [2,2′-BPBPA, 2,2′-bipyridine-5,5′-bisphosphonic acid]","% Released (2,2′-BPBPA released in PBS)",[1]; 0 h (aliquot before addition),0%
same,"% Released (2,2′-BPBPA released in PBS)",[1]; 1 h,88%
same,"% Released (2,2′-BPBPA released in PBS)",[1]; 3 h,90%
same,"% Released (2,2′-BPBPA released in PBS)",[1]; 6 h,91%
same,"% Released (2,2′-BPBPA released in PBS)",[1]; 24 h,97%
same,"% Released (2,2′-BPBPA released in PBS)",[1]; 48 h,97%
same,"% Released (2,2′-BPBPA released in PBS)",[1]; 72 h,97%
same,maximum binding to HA,[2]; 0.5 mg/mL,99%
same,time to reach maximum binding to HA,[2]; 0.5 mg/mL,12 days
same,"Amount (%) bound to HA, Mean","[2]; 0.5 mg/mL, PBS, 1 d",18%
same,"Amount (%) bound to HA, Mean","[2]; 0.5 mg/mL, PBS, 2 d",37%
same,"Amount (%) bound to HA, Mean","[2]; 0.5 mg/mL, PBS, 3 d",66%
same,"Amount (%) bound to HA, Mean","[2]; 0.5 mg/mL, PBS, 4 d",71%
same,"Amount (%) bound to HA, Mean","[2]; 0.5 mg/mL, PBS, 7 d",90%
same,"Amount (%) bound to HA, Mean","[2]; 0.5 mg/mL, PBS, 8 d",99%
same,"Amount (%) bound to HA, Mean","[2]; 0.5 mg/mL, PBS, 11 d",99%
same,"Amount (%) bound to HA, Mean","[2]; 0.5 mg/mL, PBS, 12 d",99%
same,bound to HA,"[2]; PBS, 37 °C, 7 d",about 90%
same,"Amount (%) bound to HA, Mean",[3]; 5 d,82%
same,"Amount (%) bound to HA, Mean",[3]; 6 d,88%
